Laboratory results from patent publication US20100144737A1, “METHODS FOR INHIBITING T HELPER CELL DIFFERENTIATION” (FibroGen, Inc., priority 2008, published 2010).

Columns and labels:
naïve T helper cells = assay: Th1 cell differentiation: IFN-γ secretion after second and third TCR stimulation following washout; type: cell-based, human; conditions: another series, first TCR stimulation six days with IL-12, FIG. 8
Method: The effectiveness of compounds of the present invention at reducing Th1 differentiation was examined as follows. Th1 differentiation was induced by culturing anti-CD3 stimulated T cells in the presence of exogenous IL-12. Human cord blood naive T helper cells (AllCells LLC, Emeryville, Calif.) were stimulated (i.e., T cell receptor (TCR) stimulation) by seeding into 96-well culture dishes coated with 5 μg/ml anti-CD3 antibody (clone UCHT1, R&D Systems, Minneapolis, Minn.), and 5 μg/ml anti-CD28 antibody (clone ANC28.1/D10, Ancell Corporation, Bayport, Minn.), and cultured at 37° C., 5% CO2 in RPMI-1640 (Mediatech Inc., Hemdon, Va.) containing 1% FBS, 1 U/ml penicillin-1 μg/ml streptomycin (Invitrogen Corporation, Carlsbad, Calif.), and 50 U/ml IL-2 (Roche Diagnostics Corporation, Indianapolis, Ind.). At time of seeding, cells were cultured with media alone or with media containing 2 ng/ml IL-12 and 10 μg/ml anti-IL-4 to induce Th1 cell differentiation. […]
The cells were then collected, washed twice with RPMI-1640 media containing 1% FBS, and counted before equal numbers of cells per well were re-stimulated (second T cell receptor (TCR) stimulation following washout of all prior treatments) by re-seeding the cells into 96-well culture dishes coated with 5 μg/ml anti-CD3 antibody and 5 μg/ml anti-CD28 antibody. […] After 24 hours the conditioned media from the cells was collected and analyzed for IFN-γ levels using a MS2400 Tissue Culture Kit (MesoScale Technologies, Gaithersburg, Md.) according to the manufacturer's instructions.
Thirteen days after the second TCR stimulation described above, the cells were collected, washed twice with RPMI-1640 media containing 1% FBS, and counted before equal numbers of cells per well were stimulated a third time (third TCR stimulation) by re-seeding into 96-well culture dishes coated with 5 μg/ml anti-CD3 antibody and 5 μg/ml anti-CD28 antibody. […]
In another series of experiments, the effectiveness of compounds of the present invention at reducing Th1 differentiation was determined. […]

[1] = system: IL12Rβ2, IL18R1, and IL18RAP gene expression in T helper cells; assay: IL-12-induced gene expression in T helper cells (quantitative RT-PCR); type: cell-based, human; conditions: TCR-stimulated T helper cells
Method: The effect of compounds and methods of the present invention on IL-12-induced gene expression in T helper cells was evaluated as follows. For these studies, analyses were performed to examine the effect of compounds of the present invention on expression of three genes induced by IL-12 in T helper cells: IL12Rβ2, IL18R1, and IL18RAP. (See, e.g., Saremeva et al. (2000) J hnmunol 165:1933-1938; Rogge et al. (1997) J Exp Med 185:825-831; and Nakahira et al. (2001) J Inmunol 167:1306-1312.)
Human cord blood naive T helper cells (AllCells LLC, Emeryville, Calif.) were stimulated (i.e., T cell receptor (TCR) stimulation) by seeding into 96-well culture dishes coated with 5 μg/ml anti-CD3 antibody (clone UCHT1, R&D Systems, Minneapolis, Minn.), and 5 μg/ml anti-CD28 antibody (clone ANC28.1/D10, Ancell Corporation, Bayport, Minn.), and cultured at 37° C., 5% CO2 in RPMI-1640 (Mediatech Inc., Herndon, Va.) containing 1% FBS, 1 U/ml penicillin-1 μg/ml streptomycin (Invitrogen Corporation, Carlsbad, California), and 50 U/ml IL-2 (Roche Diagnostics Corporation, Indianapolis, Ind.). At time of seeding, cells were cultured with media alone or with media containing 2 ng/ml IL-12 (R&D Systems, Minneapolis, Minn.) (to stimulate differentiation of the T helper cells into Th1 cells) and 10 μg/ml anti-IL-4 antibody (R&D Systems, Minneapolis, Minn.) (to block differentiation of the T helper cells into Th2 cells). Compound B or 1% DMSO (Veh) was added to the existing culture media and the cells cultured for an additional six days.
The cells were then lysed using Cell-to-Signal lysis buffer (Applied Biosystems, Foster City, Calif.) according to the manufacturer's instructions. The cell lysates were diluted with RNAse-free and DNAse-free water and used as templates in quantitative one-step duplex RT-PCR reactions using QuantiTect Multiplex RT-PCR Kit reagents (Qiagen Inc., Valencia, Calif.) and Taqman primers and probes (Applied Biosystems, Foster City, Calif.) as follows: IL18RAP Taqman primer/probe, catalog no. HS00187256M1; IL-12Rβ2 Taqman primer/probe, catalog no. HS00155486M1; EL18R1 Taqman primer/probe, catalog no. HS00175381M1; and TBET Taqman primer/probe, catalog no. HS00203436M1. RT-PCR reactions were performed according to the manufacturers' instructions. Changes in gene expression of IL12Rβ2, IL18R1, and IL18RAP following IL-12 addition in each sample were normalized relative to 18s ribosomal RNA gene expression measured in the same sample.

[2] = absence of IL-12, six days, normalized to 18s ribosomal RNA

Compound: Cc1ccc(Cl)c2cnc(C(=O)NCC(=O)O)c(O)c12 [Compound D, [(8-Chloro-4-hydroxy-5-methyl-isoquinoline-3-carbonyl)-amino]-acetic acid]
- IFN-γ secretion following the second TCR stimulation (naïve T helper cells): reduced IFN-γ secretion

Compound: O=C(O)CNC(=O)c1ncc2cc(Oc3ccccc3)ccc2c1O [Compound B, [(4-Hydroxy-7-phenoxy-isoquinoline-3-carbonyl)-amino]-acetic acid]
- gene expression of IL12Rβ2 [1, 2]: decrease
- gene expression of IL18R1 [1, 2]: decrease
- gene expression of IL18RAP [1, 2]: decrease
- IL-12-mediated increase in IL12Rβ2 gene expression ([1]; presence of IL-12, six days): reduced
- IL-12-mediated increase in IL18R1 gene expression ([1]; presence of IL-12, six days): reduced
- IL-12-mediated increase in IL18RAP gene expression ([1]; presence of IL-12, six days): reduced
